Results taken from patent US7354734B2, “Fungal proteins and nucleic acids encoding same” (priority 2003, dated 2008).
Entries after “also recorded” stand apart in the source; their conditions may differ. Read-outs that look alike come from different tables or passages of the source.

Columns and labels:
ruLAP1 = ruLAP1 (Trichophyton rubrum, UniProt Q5QHG5); format: biochemical; conditions: for effect of inhibitor on ruLAP1 activity: Leu-AMC 5 mM
ruLAP2 = ruLAP2 (Trichophyton rubrum, UniProt Q5QHG6); format: biochemical; conditions: for effect of inhibitor on ruLAP2 activity: Leu-AMC 5 mM; for ruLAP2 activity as percentage of control reaction without inhibitor: Leu-MCA substrate, 15 min pre-incubation
fuLAP1 = fuLAP1 (Aspergillus fumigatus, UniProt Q5VJG6); assay: biochemical; format: biochemical; conditions: for effect of inhibitor on fuLAP1 activity: Leu-AMC 5 mM
fuLAP2 = format: biochemical, Aspergillus fumigatus; conditions: for effect of inhibitor on fuLAP2 activity: Leu-AMC 5 mM; for fuLAP2 activity as percentage of control reaction without inhibitor: Leu-MCA substrate, 15 min pre-incubation
[1] = molecular target: T1, pkLAP (microsomal LAP from porcine kidney) (Sus scrofa, UniProt P15145); assay: Effect of inhibitors and metallic cations on LAP activity (Leu-AMC); format: biochemical
T1 construct: purchased Sigma; host or cells: porcine kidney
T1 sequence (P15145 1-963): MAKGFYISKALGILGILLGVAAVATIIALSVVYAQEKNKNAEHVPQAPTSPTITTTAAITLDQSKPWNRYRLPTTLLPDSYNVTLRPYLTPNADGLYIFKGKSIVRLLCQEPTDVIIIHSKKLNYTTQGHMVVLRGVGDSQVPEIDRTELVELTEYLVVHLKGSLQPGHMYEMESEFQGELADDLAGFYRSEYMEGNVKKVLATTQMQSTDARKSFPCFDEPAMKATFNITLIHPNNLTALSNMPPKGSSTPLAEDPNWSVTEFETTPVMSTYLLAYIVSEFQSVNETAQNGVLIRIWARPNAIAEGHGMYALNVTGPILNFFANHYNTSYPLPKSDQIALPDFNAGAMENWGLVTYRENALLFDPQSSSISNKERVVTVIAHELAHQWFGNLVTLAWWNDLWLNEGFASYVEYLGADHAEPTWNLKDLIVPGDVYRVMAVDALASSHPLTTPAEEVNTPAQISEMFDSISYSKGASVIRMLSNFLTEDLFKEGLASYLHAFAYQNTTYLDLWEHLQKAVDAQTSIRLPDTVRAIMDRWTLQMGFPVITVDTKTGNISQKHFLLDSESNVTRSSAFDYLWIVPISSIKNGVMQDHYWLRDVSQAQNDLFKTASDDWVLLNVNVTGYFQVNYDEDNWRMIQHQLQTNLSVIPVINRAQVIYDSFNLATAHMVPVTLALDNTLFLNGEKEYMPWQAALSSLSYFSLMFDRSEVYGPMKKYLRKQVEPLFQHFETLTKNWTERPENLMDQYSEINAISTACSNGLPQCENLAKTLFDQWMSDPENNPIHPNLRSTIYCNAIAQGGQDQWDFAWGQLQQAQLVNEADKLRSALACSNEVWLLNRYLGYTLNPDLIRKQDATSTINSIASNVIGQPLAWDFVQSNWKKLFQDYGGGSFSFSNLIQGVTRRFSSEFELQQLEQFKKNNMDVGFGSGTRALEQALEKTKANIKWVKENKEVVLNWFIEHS

[2] = tested on: gliadin 33mer (fragment 57-89 of gliadin MM1); assay: Digestion of gliadin 33mer (RP-HPLC, ESI-MS); format: biochemical, wheat; conditions: for digestion of gliadin 33mer, enzyme alone: 37° C.
[3] = format: biochemical
[4] = format: biochemical; conditions: substrate Lys(Abz)Pro-PropNA 5 mM, 37° C., 60 min
[5] = inhibitor 500 μM, Leu-MCA substrate, 15 min pre-incubation, read-out: fuLAP1 activity as percentage of control reaction without inhibitor
[6] = inhibitor 1 mM, Leu-MCA substrate, 15 min pre-incubation
[7] = inhibitor 5 mM, Leu-MCA substrate, 15 min pre-incubation
[8] = inhibitor 500 μM, Leu-MCA substrate, 15 min pre-incubation

Chain of ruLAP1 (Q5QHG5 21-373): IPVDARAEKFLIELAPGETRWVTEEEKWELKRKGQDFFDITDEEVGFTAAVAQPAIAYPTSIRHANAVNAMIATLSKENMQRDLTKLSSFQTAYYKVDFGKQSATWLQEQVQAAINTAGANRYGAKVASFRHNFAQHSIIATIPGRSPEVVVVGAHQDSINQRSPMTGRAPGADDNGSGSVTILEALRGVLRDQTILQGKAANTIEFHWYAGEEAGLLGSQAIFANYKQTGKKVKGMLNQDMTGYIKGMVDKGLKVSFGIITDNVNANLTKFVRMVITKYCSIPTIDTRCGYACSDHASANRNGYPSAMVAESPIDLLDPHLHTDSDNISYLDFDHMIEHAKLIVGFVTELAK
Chain of ruLAP2 (Q5QHG6 20-495): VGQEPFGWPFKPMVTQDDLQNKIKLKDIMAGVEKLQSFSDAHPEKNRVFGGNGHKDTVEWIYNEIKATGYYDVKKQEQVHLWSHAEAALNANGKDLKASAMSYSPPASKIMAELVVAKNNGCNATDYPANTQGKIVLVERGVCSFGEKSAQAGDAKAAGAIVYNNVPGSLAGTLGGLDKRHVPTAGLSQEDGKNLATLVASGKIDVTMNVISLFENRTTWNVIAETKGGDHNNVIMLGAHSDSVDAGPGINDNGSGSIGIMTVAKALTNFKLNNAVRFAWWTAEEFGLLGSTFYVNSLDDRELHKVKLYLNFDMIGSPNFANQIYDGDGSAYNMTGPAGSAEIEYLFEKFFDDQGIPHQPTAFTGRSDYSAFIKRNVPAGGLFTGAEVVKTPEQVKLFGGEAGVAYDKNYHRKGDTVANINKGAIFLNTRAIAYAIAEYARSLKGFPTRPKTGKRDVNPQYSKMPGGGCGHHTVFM

CC(C)C[C@@H](N)[C@H](O)C(=O)N[C@H](C(=O)N[C@H](C(=O)N[C@@H](CC(=O)O)C(=O)O)C(C)C)C(C)C [amastatin]
effect of inhibitor on ruLAP1 activity (ruLAP1): strongly or totally inhibited | effect of inhibitor on ruLAP2 activity (ruLAP2): strongly or totally inhibited | effect of inhibitor on fuLAP1 activity (fuLAP1): strongly or totally inhibited | remaining activity at 500 µM (fuLAP1; [5]): 17% | effect of inhibitor on fuLAP2 activity (fuLAP2): strongly or totally inhibited | fuLAP2 activity as percentage of control reaction without inhibitor (fuLAP2; inhibitor 500 μM): 0% | effect of inhibitor on pkLAP activity [1]: strongly or totally inhibited | remaining activity at 500 µM ([1]; read-out: pkLAP activity as percentage of control reaction without inhibitor): 0%

N=C(N)c1ccccc1 [benzamidine]
effect of inhibitor on ruLAP1 activity (ruLAP1): no clear inhibitory effects | effect of inhibitor on ruLAP2 activity (ruLAP2): no clear inhibitory effects | effect of inhibitor on fuLAP1 activity (fuLAP1): no clear inhibitory effects | remaining activity at 40 µM (fuLAP1; inhibitor 40 μM, Leu-MCA substrate, 15 min pre-incubation, read-out: fuLAP1 activity as percentage of control reaction without inhibitor): 77% | effect of inhibitor on fuLAP2 activity (fuLAP2): no clear inhibitory effects | fuLAP2 activity as percentage of control reaction without inhibitor (fuLAP2; inhibitor 40 μM): 91% | effect of inhibitor on pkLAP activity ([1]; Leu-AMC 5 mM): no clear inhibitory effects | remaining activity at 40 µM ([1]; inhibitor 40 μM, Leu-MCA substrate, 15 min pre-incubation, read-out: pkLAP activity as percentage of control reaction without inhibitor): 75%

CC(C)C[C@H](NC(=O)[C@@H](O)[C@H](N)Cc1ccccc1)C(=O)O [bestatin]
effect of inhibitor on ruLAP1 activity (ruLAP1): inhibited | effect of inhibitor on ruLAP2 activity (ruLAP2): partial inhibitory effect | effect of inhibitor on fuLAP1 activity (fuLAP1): inhibited | remaining activity at 500 µM (fuLAP1; [5]): 11% | effect of inhibitor on fuLAP2 activity (fuLAP2): partial inhibitory effect | fuLAP2 activity as percentage of control reaction without inhibitor (fuLAP2; inhibitor 500 μM): 88% | effect of inhibitor on pkLAP activity ([1]; Leu-AMC 5 mM): inhibited | remaining activity at 500 µM ([1]; inhibitor 500 μM, Leu-MCA substrate, 15 min pre-incubation, read-out: pkLAP activity as percentage of control reaction without inhibitor): 24%

c1cnc2c(c1)ccc1cccnc12 [orthophenanthroline]
ruLAP1 activity as percentage of control reaction without inhibitor (ruLAP1; [6]): 0% | ruLAP1 activity as percentage of control reaction without inhibitor (ruLAP1; [7]): 0% | ruLAP2 activity as percentage of control reaction without inhibitor (ruLAP2; inhibitor 1 mM): 0% | ruLAP2 activity as percentage of control reaction without inhibitor (ruLAP2; inhibitor 5 mM): 0% | fuLAP1 activity as percentage of control reaction without inhibitor (fuLAP1; [6]): 0% | fuLAP1 activity as percentage of control reaction without inhibitor (fuLAP1; [7]): 0% | fuLAP2 activity as percentage of control reaction without inhibitor (fuLAP2; inhibitor 1 mM): 0% | fuLAP2 activity as percentage of control reaction without inhibitor (fuLAP2; inhibitor 5 mM): 0% | pkLAP activity as percentage of control reaction without inhibitor [1, 6]: 0% | pkLAP activity as percentage of control reaction without inhibitor [1, 7]: 0%

O=C(O)c1cc[c]([Hg][Cl])cc1 [p-chloromercuribenzoate, p-chloromercuribenzoic acid]
ruLAP1 activity as percentage of control reaction without inhibitor (ruLAP1; 500 µM): 32% | effect of inhibitor on ruLAP2 activity (ruLAP2): blunted the activity | ruLAP2 activity as percentage of control reaction without inhibitor (ruLAP2; inhibitor 500 μM): 21% | fuLAP1 activity as percentage of control reaction without inhibitor (fuLAP1; [8]): 90% | fuLAP2 activity as percentage of control reaction without inhibitor (fuLAP2; inhibitor 500 μM): 96% | pkLAP activity as percentage of control reaction without inhibitor [1, 8]: 59%

Chymotrypsin
digestion of the peptide, with addition of ruLAP2 [2]: not able to breakdown | digestion of gliadin 33mer, enzyme alone [2]: not able to breakdown | digestion of the peptide, with addition of DPPIV ([2]; same conditions, E/S (w:w) 1:50): not able to breakdown

B1: fuLAP1: A. fumigatus leucine aminopeptidase, 388 amino acid residues (SEQ ID NO: 12) (protein, listed as Aspergillus fumigatus)
chain: MKVLTAIALSAIAFTGAVAAVITQEAFLNNPRIHHDQEKYLIELAPYRTRWVTEEEKWALKLDGVNFIDITEEHNTGFYPTLHSASYVKYPPKMQYAEEVAALNKNLSKENMKANLERFTSFHTRYYKSQTGIRSATWLFDQVQRVVSESGAAEYGATVERFSHPWGQFSIIARIPGRTNKTVVLGAHQDSINLFLPSILAAPGADDDGSGTVTILEALRGLLQSDAIAKGNASNTVEFHWYSAEEGGMLGSQAIFSNYKRNRREIKAMLQQDMTGYVQGALNAGVEEAIGIMVDYVDQGLTQFLKDVVTAYCSVGYLETKCGYACSDHTSASKYGYPAAMATEAEMENTNKKIHTTDDKIKYLSFDHMLEHAKLSLGFAFELAFAPF
hydrolytic activity toward Arg-AMC ([3]; compared to Leu-AMC): appreciated | hydrolytic activity toward Phe-AMC ([3]; compared to Leu-AMC): appreciated | hydrolytic activity toward Val-AMC ([3]; compared to Leu-AMC): appreciated | hydrolytic activity toward Ala-AMC in comparison to Leu-MCA used as a standard ([3]; substrate Ala-AMC 5 mM, 37° C., 60 min): 4.7% | hydrolytic activity toward Arg-AMC in comparison to Leu-MCA used as a standard ([3]; substrate Arg-AMC 5 mM, 37° C., 60 min): 53.9% | hydrolytic activity toward Asn-AMC in comparison to Leu-MCA used as a standard ([3]; substrate Asn-AMC 5 mM, 37° C., 60 min): 29.4% | hydrolytic activity toward Asp-AMC in comparison to Leu-MCA used as a standard ([3]; substrate Asp-AMC 5 mM, 37° C., 60 min): 0.8% | hydrolytic activity toward Cys-AMC in comparison to Leu-MCA used as a standard ([3]; substrate Cys-AMC 5 mM, 37° C., 60 min): 5.0% | hydrolytic activity toward Gln-AMC in comparison to Leu-MCA used as a standard ([3]; substrate Gln-AMC 5 mM, 37° C., 60 min): 44.9% | hydrolytic activity toward Glu-AMC in comparison to Leu-MCA used as a standard ([3]; substrate Glu-AMC 5 mM, 37° C., 60 min): 0.0% | hydrolytic activity toward Gly-AMC in comparison to Leu-MCA used as a standard ([3]; substrate Gly-AMC 5 mM, 37° C., 60 min): 0.8% | hydrolytic activity toward Gly-Pro-AMC in comparison to Leu-MCA used as a standard ([3]; substrate Gly-Pro-AMC 5 mM, 37° C., 60 min): 5.4% | hydrolytic activity toward His-AMC in comparison to Leu-MCA used as a standard ([3]; substrate His-AMC 5 mM, 37° C., 60 min): 0.8% | hydrolytic activity toward Hyp-AMC in comparison to Leu-MCA used as a standard ([3]; substrate Hyp-AMC 5 mM, 37° C., 60 min): 3.9% | hydrolytic activity toward Ile-AMC in comparison to Leu-MCA used as a standard ([3]; substrate Ile-AMC 5 mM, 37° C., 60 min): 13.2% | hydrolysis of Leu-AMC ([3]; substrate Leu-AMC): efficiently hydrolyzed; also recorded: common preference | hydrolytic activity toward Leu-AMC in comparison to Leu-MCA used as a standard ([3]; substrate Leu-AMC 5 mM, 37° C., 60 min): 100.0% | hydrolytic activity toward Lys-AMC in comparison to Leu-MCA used as a standard ([3]; substrate Lys-AMC 5 mM, 37° C., 60 min): 7.7% | hydrolytic activity toward Met-AMC in comparison to Leu-MCA used as a standard ([3]; substrate Met-AMC 5 mM, 37° C., 60 min): 116.9% | hydrolytic activity toward Phe-AMC in comparison to Leu-MCA used as a standard ([3]; substrate Phe-AMC 5 mM, 37° C., 60 min): 163.7% | hydrolytic activity toward Pro-AMC in comparison to Leu-MCA used as a standard ([3]; substrate Pro-AMC 5 mM, 37° C., 60 min): 12.0% | hydrolytic activity toward Pyr-AMC in comparison to Leu-MCA used as a standard ([3]; substrate Pyr-AMC 5 mM, 37° C., 60 min): 0.0% | hydrolytic activity toward Ser-AMC in comparison to Leu-MCA used as a standard ([3]; substrate Ser-AMC 5 mM, 37° C., 60 min): 10.3% | hydrolytic activity toward Thr-AMC in comparison to Leu-MCA used as a standard ([3]; substrate Thr-AMC 5 mM, 37° C., 60 min): 5.1% | hydrolytic activity toward Val-AMC in comparison to Leu-MCA used as a standard ([3]; substrate Val-AMC 5 mM, 37° C., 60 min): 27.6% | hydrolytic activity toward Lys(Abz)Pro-PropNA in comparison to Leu-MCA used as a standard [4]: 0.0%

B2: Cytosolic porcine kidney aminopeptidase: cytosolic leucine aminopeptidase from porcine kidney, Sigma (protein, UniProt P28839 1-519, looked up)
Cytosol aminopeptidase: MFLLPLPAAARVAVRQLSVRRFWGPGPDAANMTKGLVLGIYSKEKEDDAPQFTSAGENFDKLVSGKLREILNISGPPLKAGKTRTFYGLHEDFSSVVVVGLGKKGAGVDDQENWHEGKENIRAAVAAGCRQIQDLEIPSVEVDPCGDAQAAAEGAVLGLYEYDELKQKKKVVVSAKLHGSGDQEAWQRGVLFASGQNLARHLMETPANEMTPTRFAEVIEKNLKSASSKTDVHIRPKSWIEEQEMGSFLSVAKGSEEPPVFLEIHYKGSPDASDPPLVFVGKGITFDSGGISIKASANMDLMRADMGGAATICSTIVSAAKLDLPINLVGLAPLCENMPSGKANKPGDVVRAKNGKTIQVDNTDAEGRLILADALCYAHTFNPKVIINAATLTGAMDIALGSGATGVFTNSSWLWNKLFEASIETGDRVWRMPLFEHYTKQIVDCQLADVNNIGKYRSAGACTAAAFLKEFVTHPKWAHLDIAGVMTNKDEVPYLRKGMAGRPTRTLIEFLLRFSQDSA
digestion of gliadin 33mer, enzyme alone [2]: totally inactive
